Data published in publication PMC5729930, “Bitopic fluorescent antagonists of the A2A adenosine receptor based on pyrazolo[4,3-e][1,2,4]triazolo[1,5-c]pyrimidin-5-amine functionalized congeners” (MedChemComm, 2017).
Like-named read-outs stand apart in the source and are kept apart here. Marks after values point to notes of the source that are not given here.

Key:
A1AR [1] = molecular target: T1, A1AR (Homo sapiens, UniProt P30542); assay: Competition radioligand binding, hA1AR ([3H]DPCPX); settings: [3H]DPCPX 0.5 nM; for Ki: HEK-293 membranes, 1 h 25 °C, mean ± SEM, read-out: Affinity, Ki, A1; for inhibition at 10 µM: percent inhibition at 10 μM
T1 construct: expressed in transfected cells
T1 sequence (P30542 1-326): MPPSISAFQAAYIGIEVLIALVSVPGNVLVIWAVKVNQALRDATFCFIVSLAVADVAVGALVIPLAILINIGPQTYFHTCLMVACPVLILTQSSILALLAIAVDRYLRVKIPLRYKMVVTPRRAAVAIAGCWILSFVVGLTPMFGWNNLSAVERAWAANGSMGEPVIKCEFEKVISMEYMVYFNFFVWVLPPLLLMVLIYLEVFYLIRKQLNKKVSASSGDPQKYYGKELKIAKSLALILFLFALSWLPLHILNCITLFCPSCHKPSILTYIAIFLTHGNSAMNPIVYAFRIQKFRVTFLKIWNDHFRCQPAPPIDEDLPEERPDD
Description: (§1) The affinity of the amine congeners and other antagonists was measured using standard radioligand binding assays for hA1, A2A and A3ARs (Table 1).[1],[13],[14],[22] Membranes of human embryonic kidney (HEK)293 cells expressing the AR of interest were used in the assay. Primary amine congeners 6a–6d containing spacers of 2–5 methylenes were similar in terms of hA2AAR affinity (Ki 6–9 nM), with the butylamino congener 6c displaying the highest A2AAR selectivity in the series. The affinity of this compound for the hA3AR was determined to be 6.0 μM, with only slightly higher hA1AR affinity. Homologation to 6 methylenes in compound 6e lowered A2AAR affinity. […] No dependence of the affinity on the chain length was evident when comparing AlexaFluor647 conjugates 9 and 10. […]
(§2) Radioligand binding assays: Cell membranes were prepared as reported.1
(§3) Binding assays were carried out using standard radioligands and membrane preparations from HEK-293 cells stably expressing the human (h) A1, A2A or A3ARs or mouse (m) A1, A2A or A3ARs. The radioligands used were: A1AR, [3H]8-cyclopentyl-1,3-dipropylxanthine 14; A2AAR, [3H]2; A3AR, [125I]N6-(4-amino-3-iodobenzyl)adenosine-5′-N-methyluronamide 16. The radioligand for archival A2AAR affinity data presented in Table 1 was [3H]2-[p-(2-carboxyethyl)phenyl-ethylamino]-5′-N-ethylcarboxamidoadenosine 15. Nonspecific binding was determined using 10 µM 8-[4-[[[[(2-aminoethyl)amino]carbonyl]methyl]oxy]phenyl]-1,3-dipropylxanthine 17 (A1AR and A2AAR) or 10 µM adenosine-5′-N-ethyluronamide 18 (A3AR). HEK-293 cells expressing recombinant mA1, A2A, or A3AR […]
(§4) Protein was determined as reported.2 In all the binding experiments, IC50 values and Ki values were calculated using GraphPad Prism software (San Diego, CA). Values are expressed as mean±SEM. […]
(§5) Med. Chem. Comm., 2015, 6:555-563.
(§6) 2. Bradford, M. M. A rapid and sensitive method for the quantitation of microgram quantities of protein utilizing the principle of protein -dye binding. Anal. Biochem. 1976, 72, 248-254.

A3AR [2] = molecular target: T2, A3AR (Homo sapiens, UniProt P0DMS8); assay: Competition radioligand binding, hA3AR ([125I]I-AB-MECA); settings: for inhibition at 10 µM: percent inhibition at 10 μM, read-out: % inhib, A3
T2 construct: expressed in transfected cells
T2 sequence (P0DMS8 1-318): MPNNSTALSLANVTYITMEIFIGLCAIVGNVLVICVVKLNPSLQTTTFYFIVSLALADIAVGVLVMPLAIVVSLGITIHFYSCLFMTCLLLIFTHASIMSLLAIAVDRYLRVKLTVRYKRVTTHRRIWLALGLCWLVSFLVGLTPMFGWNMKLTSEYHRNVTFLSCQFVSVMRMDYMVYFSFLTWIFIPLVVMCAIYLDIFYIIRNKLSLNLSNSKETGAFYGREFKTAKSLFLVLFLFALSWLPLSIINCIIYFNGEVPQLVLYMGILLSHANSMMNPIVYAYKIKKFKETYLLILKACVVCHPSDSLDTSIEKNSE
Description: as §1, §2, §3, §4, §5, §6

A2AAR = molecular target: T3, A2AAR (Homo sapiens, UniProt P29274); assay: Competition radioligand binding, hA2AAR ([3H]ZM241385 or [3H]CGS21680); settings: human A2AAR, HEK-293 membranes, [3H]ZM241385 1.0 nM, 1 h 25 °C, mean ± SEM; read-out: Affinity, Ki, A2A
T3 construct: expressed in transfected cells
T3 sequence (P29274 whole entry): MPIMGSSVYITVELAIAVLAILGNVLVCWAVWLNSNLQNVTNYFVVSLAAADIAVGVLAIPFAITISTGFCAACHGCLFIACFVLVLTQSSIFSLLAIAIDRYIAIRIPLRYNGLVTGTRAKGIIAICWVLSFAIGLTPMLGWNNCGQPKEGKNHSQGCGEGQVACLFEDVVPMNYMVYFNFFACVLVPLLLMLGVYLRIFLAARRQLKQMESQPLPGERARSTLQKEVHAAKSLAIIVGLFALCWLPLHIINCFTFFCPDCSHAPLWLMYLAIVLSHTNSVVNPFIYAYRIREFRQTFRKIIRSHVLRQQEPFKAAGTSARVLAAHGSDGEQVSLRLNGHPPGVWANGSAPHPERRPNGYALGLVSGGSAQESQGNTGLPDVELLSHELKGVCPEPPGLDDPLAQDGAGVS
Description: (§7) The affinity of the amine congeners and other antagonists was measured using standard radioligand binding assays for hA1, A2A and A3ARs (Table 1).[1],[13],[14],[22] Membranes of human embryonic kidney (HEK)293 cells expressing the AR of interest were used in the assay. Primary amine congeners 6a–6d containing spacers of 2–5 methylenes were similar in terms of hA2AAR affinity (Ki 6–9 nM), with the butylamino congener 6c displaying the highest A2AAR selectivity in the series. The affinity of this compound for the hA3AR was determined to be 6.0 μM, with only slightly higher hA1AR affinity. Homologation to 6 methylenes in compound 6e lowered A2AAR affinity. […] No dependence of the affinity on the chain length was evident when comparing AlexaFluor647 conjugates 9 and 10.
Fig. 1 Antagonist radioligand ([^3H]2, 1.0 nM) binding inhibition curves for the hA2AAR for four antagonist fluorescent conjugates. Compound numbers: MRS7322 9, MRS7395 10, MRS7396 11 and MRS7416 12. Membranes from HEK-293 cells expressing the hA2AAR were used, and their incubation was performed for 1 h at 25 °C. Results are expressed as the mean ± SEM.
(§8) Cell culture for membrane binding assays and flow cytometry: HEK-293 cells stably expressing the A2AAR were grown in Dulbecco’s Modified Eagle’s Medium (DMEM) with 10% FBS, 100 units/ml penicillin, […] streptomycin, 2 mM L-glutamine and 0.500 mg/mL G418 Sulfate (Geneticin). […]
as §2, §3, §4, §5, §6

5HT2B receptor = molecular target: T4, 5HT2B receptor (Homo sapiens, UniProt P41595); assay: PDSP off-target radioligand binding, 5HT2B; settings: PDSP radioligand binding inhibition
T4 construct: PDSP (screening service)
T4 sequence (P41595 whole entry): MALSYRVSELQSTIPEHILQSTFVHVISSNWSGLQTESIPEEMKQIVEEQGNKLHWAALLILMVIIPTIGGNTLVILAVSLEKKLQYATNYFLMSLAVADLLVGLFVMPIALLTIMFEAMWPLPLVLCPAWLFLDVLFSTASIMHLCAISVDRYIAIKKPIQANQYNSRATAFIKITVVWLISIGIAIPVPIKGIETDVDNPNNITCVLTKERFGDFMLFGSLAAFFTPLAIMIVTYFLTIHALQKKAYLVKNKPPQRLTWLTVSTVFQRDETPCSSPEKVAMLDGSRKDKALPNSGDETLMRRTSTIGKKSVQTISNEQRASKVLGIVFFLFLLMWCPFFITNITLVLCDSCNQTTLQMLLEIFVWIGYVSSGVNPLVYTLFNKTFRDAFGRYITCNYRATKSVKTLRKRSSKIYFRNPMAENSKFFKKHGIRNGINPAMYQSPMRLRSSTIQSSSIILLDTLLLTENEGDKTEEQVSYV
Description: (§9) . Off-target binding activities at 45 diverse receptors were determined by PDSP[25] for selected compounds: 6c and 13 (ESI ^†). […]; 1.92 μM, 5HT2B receptor. Thus, the primary amine precursor of the fluorescent conjugates 10–12 was not promiscuous in its interaction with other proteins, i.e. this chemical series is not associated with pan-assay interference compounds.[26]
(§10) Chinese hamster ovary (CHO) cells stably expressing the human A2AAR were cultured in Dulbecco's Modified Eagle Medium (Mediatech, Manassas, VA) supplemented with 10% fetal bovine serum, 100 units/ml penicillin, 100 µg/ml streptomycin and 2 µmol/ml glutamine. Cells were plated in 96-well plates in 100 µl medium. After 24 h, the medium was removed and cells were washed three times with 100 µl DMEM, containing 50 mM HEPES, pH 7.4. Cells were treated with antagonists (or medium for control) in the presence of rolipram (10 µM) and adenosine deaminase (3 units/ml) and 5 min later with agonist for 20 min. The reaction was terminated by removal of the supernatant, and cells were lysed upon the addition of 100 µl of lysis buffer (0.3% Tween-20). cAMP was measured using ALPHAScreen cAMP kits (PerkinElmer, Boston, MA) as instructed by the manufacturer.
(§11) Refer to: http://pdspdb.unc.edu for full list of comprehensive screen at 45 targets.
(§12) 5HT2A serotonin receptor: […]

5HT2A serotonin receptor = molecular target: T5, 5HT2A serotonin receptor (Homo sapiens, UniProt P28223); assay: PDSP off-target radioligand binding, 5HT2A; settings: PDSP radioligand binding inhibition
T5 construct: PDSP (screening service)
T5 sequence (P28223 whole entry): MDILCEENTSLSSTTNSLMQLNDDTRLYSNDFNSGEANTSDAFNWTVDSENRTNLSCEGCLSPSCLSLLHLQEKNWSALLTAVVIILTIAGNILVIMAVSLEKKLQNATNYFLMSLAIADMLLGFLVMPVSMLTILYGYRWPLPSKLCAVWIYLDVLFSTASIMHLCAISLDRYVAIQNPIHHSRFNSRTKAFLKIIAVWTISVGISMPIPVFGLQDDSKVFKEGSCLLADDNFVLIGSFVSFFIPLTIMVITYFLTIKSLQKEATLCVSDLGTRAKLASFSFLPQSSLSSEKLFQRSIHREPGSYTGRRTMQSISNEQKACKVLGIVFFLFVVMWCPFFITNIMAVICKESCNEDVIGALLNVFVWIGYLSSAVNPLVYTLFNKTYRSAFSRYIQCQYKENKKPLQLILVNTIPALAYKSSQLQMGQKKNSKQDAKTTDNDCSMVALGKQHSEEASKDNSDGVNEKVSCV
Description: as §9, §10, §11, §12

A3AR [3] = molecular target: T2, A3AR; set-up: method as in earlier work; settings: percent inhibition at 10 μM, 14 (Kumar et al. and Kecskés et al.); cited from earlier work
A1AR [4] = molecular target: T1, A1AR; set-up: method as in earlier work; settings: percent inhibition at 10 μM, 14 (Kumar et al. and Kecskés et al.); cited from earlier work
mA3AR = molecular target: T6, mA3AR (Mus musculus, UniProt Q61618); assay: Competition radioligand binding, mA3AR; settings: mouse A3AR, percent inhibition at 10 μM; read-out: % inhib, A3 (m) (converted)
T6 construct: expressed in transfected cells; host or cells: HEK-293
T6 sequence (Q61618 1-319): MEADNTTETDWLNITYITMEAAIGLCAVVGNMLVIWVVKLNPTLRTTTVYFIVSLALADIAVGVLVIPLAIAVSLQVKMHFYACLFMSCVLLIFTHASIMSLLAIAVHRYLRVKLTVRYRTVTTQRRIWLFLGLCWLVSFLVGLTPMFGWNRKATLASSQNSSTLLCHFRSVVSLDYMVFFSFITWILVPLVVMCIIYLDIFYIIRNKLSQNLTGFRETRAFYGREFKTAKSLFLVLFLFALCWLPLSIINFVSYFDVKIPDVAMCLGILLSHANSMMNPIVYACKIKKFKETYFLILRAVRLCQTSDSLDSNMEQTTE
Description: as §1, §2, §3, §4, §5, §6

mA1AR = molecular target: T7, mA1AR (Mus musculus, UniProt Q60612); assay: Competition radioligand binding, mA1AR; settings: mouse A1AR, percent inhibition at 10 μM
T7 construct: expressed in transfected cells; host or cells: HEK-293
T7 sequence (Q60612 1-326): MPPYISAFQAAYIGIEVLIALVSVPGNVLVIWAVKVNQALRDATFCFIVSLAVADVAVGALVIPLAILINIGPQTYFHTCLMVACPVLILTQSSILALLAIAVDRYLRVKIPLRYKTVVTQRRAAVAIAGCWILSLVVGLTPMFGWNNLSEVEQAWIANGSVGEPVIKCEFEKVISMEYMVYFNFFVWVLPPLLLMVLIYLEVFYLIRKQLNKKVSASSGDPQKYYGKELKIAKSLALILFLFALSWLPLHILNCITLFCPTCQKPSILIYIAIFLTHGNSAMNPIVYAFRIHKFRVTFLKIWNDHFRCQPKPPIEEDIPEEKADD
Description: as §1, §2, §3, §4, §5, §6

mA2AAR = molecular target: T8, mA2AAR (Mus musculus, UniProt Q60613); assay: Competition radioligand binding, mA2AAR; settings: mouse A2AAR, HEK-293 membranes, mean ± SEM; read-out: Affinity, Ki, A2A (m) (converted)
T8 construct: expressed in transfected cells; host or cells: HEK-293
T8 sequence (Q60613 whole entry): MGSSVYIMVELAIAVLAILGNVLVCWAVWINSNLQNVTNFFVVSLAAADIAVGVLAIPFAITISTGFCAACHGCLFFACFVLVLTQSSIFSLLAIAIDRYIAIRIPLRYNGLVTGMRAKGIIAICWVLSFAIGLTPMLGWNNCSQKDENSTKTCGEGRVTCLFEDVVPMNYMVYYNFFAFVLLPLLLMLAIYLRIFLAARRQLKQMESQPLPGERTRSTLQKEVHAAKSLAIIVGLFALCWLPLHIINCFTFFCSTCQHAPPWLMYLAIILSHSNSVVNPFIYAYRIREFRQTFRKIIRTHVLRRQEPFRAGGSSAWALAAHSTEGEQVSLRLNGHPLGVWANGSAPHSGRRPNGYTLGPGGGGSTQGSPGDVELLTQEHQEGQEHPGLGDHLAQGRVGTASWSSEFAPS
Description: as §7, §8, §2, §3, §4, §5, §6

[5] = HEK-293 membranes, [125I]I-AB-MECA 0.2 nM, 1 h 25 °C, mean ± SEM, read-out: Affinity, Ki, A3

| Compound | Ki (A1AR [1]) [µM] | Ki (A3AR [2]; [5]) [µM] | Ki (A2AAR) [µM] | % inhib, A3 (A3AR [3]) | % inhib, A1 (A1AR [4]) | also measured |
| --- | --- | --- | --- | --- | --- | --- |
| NCCCNC(=O)COc1ccc(CCCn2ncc3c2nc(N)n2nc(-c4ccco4)nc32)cc1 [6b] | 1.3 ± 0.35 | 2.17 ± 0.66 | 0.00929 ± 0.00792 | – | – | – |
| NCCCCNC(=O)COc1ccc(CCCn2ncc3c2nc(N)n2nc(-c4ccco4)nc32)cc1 [6c] | 2.39 ± 0.1 | 5.99 ± 2.9 | 0.00646 ± 0.00163 | – | – | Ki (5HT2B receptor): 1.92 µM; Ki (5HT2A serotonin receptor): 3.36 µM; Ki (A3AR [2]; read-out: affinity for the hA3AR): 6 µM |
| NCCCCCNC(=O)COc1ccc(CCCn2ncc3c2nc(N)n2nc(-c4ccco4)nc32)cc1 [6d] | 1.91 ± 0.12 | 0.656 ± 0.132 | 0.00636 ± 0.00358 | – | – | – |
| NCCCCCCNC(=O)COc1ccc(CCCn2ncc3c2nc(N)n2nc(-c4ccco4)nc32)cc1 [6e] | 6.5 ± 2.83 | 2.07 ± 0.85 | 0.0228 ± 0.00845 | – | – | – |
| COc1ccc(CCCn2ncc3c2nc(N)n2nc(-c4ccco4)nc32)cc1 [compound 3, 5-amino-7-(3-(4-methoxy)phenylpropyl)-2-(2-furyl)pyrazolo[4,3-e]-1,2,4-triazolo[1,5-c]pyrimidine] | – | – | – | (67 ± 1%) ^c | (35 ± 5%) ^c | – |
| N=c1ccc2c(-c3ccc(C(=O)NCCNC(=O)COc4ccc(CCCn5ncc6c5nc(N)n5nc(-c7ccco7)nc65)cc4)cc3C(=O)O)c3ccc(N)c(S(=O)(=O)O)c3oc-2c1S(=O)(=O)O [compound 5] | – | – | – | (4 ± 2%) ^c | (20 ± 3%) ^c | – |
| Nc1nc2c(cnn2CCCc2ccc(O)cc2)c2nc(-c3ccco3)nn12 [compound 7] | – | – | – | (34 ± 3%) ^c | (66 ± 2%) ^c | – |
| CC1(C)C(/C=C/C=C/C=C2/N(CCCS(=O)(=O)O)c3ccc(S(=O)(=O)O)cc3C2(C)CCCCCC(=O)NCCNC(=O)COc2ccc(CCCn3ncc4c3nc(N)n3nc(-c5ccco5)nc43)cc2)=[N+](CCCS(=O)(=O)O)c2ccc(S(=O)(=O)[O-])cc21 (stereo not drawn) [compound 9] | – | – | 0.332 ± 0.165 | – | – | inhibition at 10 µM (A1AR [1]): 13%; inhibition at 10 µM (mA3AR): 4%; inhibition at 10 µM (mA1AR): 3%; inhibition at 10 µM (A3AR [2]; [125I]I-AB-MECA 0.2 nM): 21%; Ki (mA2AAR): 0.458 µM |
| CC1(C)C(/C=C/C=C/C=C2/N(CCCS(=O)(=O)O)c3ccc(S(=O)(=O)O)cc3C2(C)CCCCCC(=O)NCCCCNC(=O)COc2ccc(CCCn3ncc4c3nc(N)n3nc(-c5ccco5)nc43)cc2)=[N+](CCCS(=O)(=O)O)c2ccc(S(=O)(=O)[O-])cc21 (stereo not drawn) [compound 10] | – | – | 0.295 ± 0.176 | – | – | inhibition at 10 µM (A1AR [1]): 20%; inhibition at 10 µM (A3AR [2]; [125I]I-AB-MECA 0.2 nM): 21% |
